Results reported in ChEMBL document CHEMBL5038670, “Design, Synthesis, and Biological Evaluation of Apcin-Based CDC20 Inhibitors” (ACS Med Chem Lett, 2022).
The source made the active and inactive calls. No cut-off for these calls is given here.

Legend:
MDA-MB-468 [1] = assay: Effect on BimL expression in human TNBC MDA-MB-468 cells at 10 to 30 uM measured after 24 hrs by western blot analysis relative to control; format: functional, cell-based; conditions: dose 10-30 µM
MDA-MB-231 [2] = assay: Cytotoxicity against human TNBC MDA-MB-231 cells assessed as cell viability measured after 72 hrs; format: functional, cell-based; conditions: MDA-MB-231, 72 h
MDA-MB-468 [3] = assay: Upregulation of cyclin B1 level in human TNBC MDA-MB-468 cells at 10 uM measured after 24 hrs by western blot analysis relative to control; format: functional, cell-based
MDA-MB-468 [4] = assay: Effect on BimEL expression in human TNBC MDA-MB-468 cells at 10 to 30 uM measured after 24 hrs by western blot analysis relative to control; format: functional, cell-based; conditions: dose 10-30 µM
MDA-MB-468 [5] = assay: Cytotoxicity against human TNBC MDA-MB-468 cells assessed as cell viability measured after 72 hrs; format: functional, cell-based; conditions: MDA-MB-468, 72 h
MDA-MB-468 [6] = assay: Antitumor activity against human MDA-MB-468 cells assessed as induction of cell death at 30 uM measured after 24 hour relative to control; format: functional, cell-based
MDA-MB-468 [7] = assay: Downregulation of CDC20 level in human TNBC MDA-MB-468 cells at 10 uM measured after 24 hrs by western blot analysis relative to control; format: functional, cell-based
MDA-MB-468 [8] = assay: Downregulation of se-curin level in human TNBC MDA-MB-468 cells at 10 uM measured after 24 hrs by western blot analysis relative to control; format: functional, cell-based
MDA-MB-468 [9] = assay: Downregulation of se-curin level in human TNBC MDA-MB-468 cells at 30 uM measured after 24 hrs by western blot analysis relative to control; format: functional, cell-based
MDA-MB-468 [10] = assay: Effect on BimS expression in human TNBC MDA-MB-468 cells at 10 to 30 uM measured after 24 hrs by western blot analysis relative to control; format: functional, cell-based; conditions: dose 10-30 µM
MDA-MB-468 [11] = assay: Downregulation of CDC20 level in human TNBC MDA-MB-468 cells at 30 uM measured after 24 hrs by western blot analysis relative to control; format: functional, cell-based
MDA-MB-468 [12] = assay: Downregulation of cyclin B1 level in human TNBC MDA-MB-468 cells at 30 uM measured after 24 hrs by western blot analysis relative to control; format: functional, cell-based
MDA-MB-231 [13] = assay: Cytotoxicity against human TNBC MDA-MB-231 cells assessed as cell viability at 300 uM measured after 72 hrs relative to control; format: functional; conditions: for viability at 300 µM: read-out: Activity
MDA-MB-468 [14] = assay: Cytotoxicity against human TNBC MDA-MB-468 cells assessed as cell viability at 300 uM measured after 72 hrs relative to control; format: functional; conditions: for viability at 300 µM: read-out: Activity
Sus scrofa [15] = species on record: Sus scrofa; assay: Inhibition of porcine brain tubulin polymerization at 10 uM measured for 60 mins by spectrophotometric method relative to control
MDA-MB-468 [16] = assay: Upregulation of cyclin B1 level in human TNBC MDA-MB-468 cells at 80 uM measured after 24 hrs by western blot analysis relative to control; format: functional, cell-based
Sus scrofa [17] = species on record: Sus scrofa; assay: Induction of porcine brain tubulin polymerization at 10 uM measured for 60 mins by spectrophotometric method relative to control; format: tissue-based

With Cc1sc(NC(NC(=O)OCCn2c([N+](=O)[O-])cnc2C)C(F)(Cl)Cl)nc1-c1ccc(OC(F)(F)F)cc1 (stereo unspecified) the Activity (MDA-MB-468 [1]) was “Dose-Dependent Effect”, the IC50 (MDA-MB-231 [2]) was 10.8 µM and the Activity (MDA-MB-468 [3]) was “Active”. The Activity (MDA-MB-468 [4]) was “Dose-Dependent Effect”, the IC50 (MDA-MB-468 [5]) was 13.2 µM and the Activity (MDA-MB-468 [6]) was “Active”. The Activity (MDA-MB-468 [7]) was “inactive”, the Activity (MDA-MB-468 [8]) was “Active” and the Activity (MDA-MB-468 [9]) was “Active”. For the same molecule, the Activity (MDA-MB-468 [10]) was “Dose-Dependent Effect”, the Activity (MDA-MB-468 [11]) was “Active” and the Activity (MDA-MB-468 [12]) was “Active”.
In the case of COc1ccc(-c2csc(NC(NC(=O)OCCN3CCOCC3)C(F)(F)Cl)n2)cc1 (stereo unspecified), the IC50 (MDA-MB-231 [2]) is reported as 52.6 µM and the IC50 (MDA-MB-468 [5]) is reported as 47.5 µM.
COc1ccc(-c2csc(NC(NC(=O)OCCn3c([N+](=O)[O-])cnc3C)C(F)(F)Cl)n2)cc1 (stereo unspecified) showed an IC50 (MDA-MB-231 [2]) of 63.1 µM and an IC50 (MDA-MB-468 [5]) of 49.2 µM.
For COC(=O)c1ccc(-c2csc(NC(NC(=O)OCCn3c([N+](=O)[O-])cnc3C)C(F)(F)Cl)n2)cc1 (stereo unspecified), the IC50 (MDA-MB-231 [2]) was 34.5 µM and the IC50 (MDA-MB-468 [5]) was 18.7 µM.
COC(=O)c1sc(NC(NC(=O)OCCn2c([N+](=O)[O-])cnc2C)C(F)(F)Cl)nc1-c1ccccc1 (stereo unspecified) showed an IC50 (MDA-MB-231 [2]) of 42.1 µM and an IC50 (MDA-MB-468 [5]) of 23.5 µM.
Cc1ncc([N+](=O)[O-])n1CCOC(=O)NC(Nc1nc2ccc(F)cc2s1)C(F)(F)Cl (stereo unspecified) gave an IC50 (MDA-MB-231 [2]) of 80.7 µM and an IC50 (MDA-MB-468 [5]) of 73.7 µM.
Molecule Cc1sc(NC(NC(=O)OCCN2CCOCC2)C(F)(F)Cl)nc1-c1ccc(OC(F)(F)F)cc1 (stereo unspecified) has an IC50 (MDA-MB-231 [2]) of 14.2 µM and an IC50 (MDA-MB-468 [5]) of 32.6 µM.
For Cc1ncc([N+](=O)[O-])n1CCOC(=O)NC(Nc1nc2ccc(C#N)cc2s1)C(F)(F)Cl (stereo unspecified), the IC50 (MDA-MB-231 [2]) was 80.8 µM and the IC50 (MDA-MB-468 [5]) was 116 µM.
COc1ccc(-c2csc(NC(NC(=O)OCCn3c([N+](=O)[O-])cnc3C)C(F)(Cl)Cl)n2)cc1 (stereo unspecified) showed an IC50 (MDA-MB-231 [2]) of 63.5 µM and an IC50 (MDA-MB-468 [5]) of 39.3 µM.
With Cc1ncc([N+](=O)[O-])n1CCOC(=O)NC(Nc1c(Cl)nc(N)nc1Cl)C(F)(F)Cl (stereo unspecified) the Activity (MDA-MB-231 [13]) was “inactive” and the viability at 300 µM (MDA-MB-468 [14]) was 52%.
With Cc1ncc([N+](=O)[O-])n1CCOC(=O)NC(Nc1nc(-c2ccc(S(C)(=O)=O)cc2)cs1)C(F)(F)Cl (stereo unspecified) the IC50 (MDA-MB-231 [2]) was > 300 µM and the IC50 (MDA-MB-468 [5]) was 103 µM.
Work on CC(=O)Nc1ccc(-c2csc(NC(NC(=O)OCCn3c([N+](=O)[O-])cnc3C)C(F)(F)Cl)n2)cc1 (stereo unspecified) yielded an IC50 (MDA-MB-231 [2]) of 75.7 µM and an IC50 (MDA-MB-468 [5]) of 66.5 µM.
For Cc1ncc([N+](=O)[O-])n1CCOC(=O)NC(Nc1nc(-c2ccc(C#N)c(F)c2)cs1)C(F)(F)Cl (stereo unspecified), the IC50 (MDA-MB-231 [2]) was 24.1 µM, the IC50 (MDA-MB-468 [5]) was 14.4 µM and the inhibition (Sus scrofa [15]) was “inactive”.
Work on Cc1ncc([N+](=O)[O-])n1CCOC(=O)NC(Nc1ncccn1)C(F)(F)Cl (stereo unspecified) yielded a viability at 300 µM (MDA-MB-231 [13]) of 52% and a viability at 300 µM (MDA-MB-468 [14]) of 40%.
Molecule Cc1ncc([N+](=O)[O-])n1CCOC(=O)NC(Nc1nc2ccc([N+](=O)[O-])cc2s1)C(F)(F)Cl (stereo unspecified) has an IC50 (MDA-MB-231 [2]) of 37.8 µM and an IC50 (MDA-MB-468 [5]) of 40.1 µM.
Cc1ncc([N+](=O)[O-])n1CCOC(=O)NC(Nc1nc2ccccc2[nH]1)C(F)(F)Cl (stereo unspecified) gave a viability at 300 µM (MDA-MB-231 [13]) of 70% and a viability at 300 µM (MDA-MB-468 [14]) of 47%.
In the case of Cc1sc(NC(NC(=O)OCCn2c([N+](=O)[O-])cnc2C)C(F)(F)Cl)nc1-c1ccc(OC(F)(F)F)cc1 (stereo unspecified), the Activity (MDA-MB-468 [1]) is reported as “Dose-Dependent Effect”, the IC50 (MDA-MB-231 [2]) is reported as 12 µM and the Activity (MDA-MB-468 [4]) is reported as “Dose-Dependent Effect”. The IC50 (MDA-MB-468 [5]) was 11.4 µM, the Activity (MDA-MB-468 [6]) was “Active” and the Activity (MDA-MB-468 [7]) was “Active”. For the same molecule, the inhibition (Sus scrofa [15]) was “inactive”, the Activity (MDA-MB-468 [9]) was “Active” and the Activity (MDA-MB-468 [10]) was “Dose-Dependent Effect”. For the same molecule, the Activity (MDA-MB-468 [11]) was “Active” and the Activity (MDA-MB-468 [12]) was “Active”.
With Cc1ncc([N+](=O)[O-])n1CCOC(=O)NC(Nc1nc(-c2ccc(OC(F)(F)F)cc2)cs1)C(F)(F)Cl (stereo unspecified) the IC50 (MDA-MB-231 [2]) was 12 µM and the IC50 (MDA-MB-468 [5]) was 23.3 µM.
Molecule Cc1ncc([N+](=O)[O-])n1CCOC(=O)NC(Nc1nc2ccccc2s1)C(F)(F)Cl (stereo unspecified) has a viability at 300 µM (MDA-MB-231 [13]) of 66% and a viability at 300 µM (MDA-MB-468 [14]) of 21%.
With Cc1ncc([N+](=O)[O-])n1CCOC(=O)NC(Nc1nc2ccc(S(C)(=O)=O)cc2s1)C(F)(F)Cl (stereo unspecified) the IC50 (MDA-MB-231 [2]) was 230 µM and the IC50 (MDA-MB-468 [5]) was > 300 µM.
Molecule Cc1ncc([N+](=O)[O-])n1CCOC(=O)NC(Nc1nc2c(F)cc(F)cc2s1)C(F)(F)Cl (stereo unspecified) has an IC50 (MDA-MB-231 [2]) of 106 µM and an IC50 (MDA-MB-468 [5]) of 101 µM.
Cc1ncc([N+](=O)[O-])n1CCOC(=O)NC(Nc1nc(-c2ccc(Cl)cc2Cl)cs1)C(F)(F)Cl (stereo unspecified) was tested, and the IC50 (MDA-MB-231 [2]) was 21.4 µM and the IC50 (MDA-MB-468 [5]) was 14.4 µM.
With Cc1ncc([N+](=O)[O-])n1CCOC(=O)NC(Nc1ncc(C#N)cn1)C(F)(F)Cl (stereo unspecified) the Activity (MDA-MB-468 [14]) was “inactive”.
In the case of Cc1sc(NC(NC(=O)OCCn2c([N+](=O)[O-])cnc2C)C(F)(F)Cl)nc1-c1ccc(Cl)cc1 (stereo unspecified), the IC50 (MDA-MB-231 [2]) is reported as 12.6 µM, the IC50 (MDA-MB-468 [5]) is reported as 10.1 µM and the inhibition (Sus scrofa [15]) is reported as “inactive”.
For Cc1ncc([N+](=O)[O-])n1CCOC(=O)NC(N1CCOCC1)C(F)(F)Cl (stereo unspecified), the Activity (MDA-MB-231 [13]) was “inactive” and the Activity (MDA-MB-468 [14]) was “inactive”.
COc1ccc(-c2csc(NC(NC(=O)OCCn3c([N+](=O)[O-])cnc3C)C(F)(F)Cl)n2)cc1O (stereo unspecified) showed an IC50 (MDA-MB-231 [2]) of 224 µM and an IC50 (MDA-MB-468 [5]) of 82.5 µM.
Cc1ncc([N+](=O)[O-])n1CCOC(=O)NC(Nc1nc2ccc(Cl)cc2s1)C(F)(F)Cl (stereo unspecified) showed an IC50 (MDA-MB-231 [2]) of 44.5 µM and an IC50 (MDA-MB-468 [5]) of 42.2 µM.
Cc1ncc([N+](=O)[O-])n1CCOC(=O)NC(Nc1ncccn1)C(Cl)(Cl)Cl (stereo unspecified) was tested, and the IC50 (MDA-MB-231 [2]) was 91.4 µM, the IC50 (MDA-MB-468 [5]) was 53.5 µM and the Activity (MDA-MB-468 [16]) was “Active”.
In the case of CC(=O)O[C@H]1C(=O)[C@@]2(C)[C@H]([C@H](OC(=O)c3ccccc3)[C@]3(O)C[C@H](OC(=O)[C@H](O)[C@@H](NC(=O)c4ccccc4)c4ccccc4)C(C)=C1C3(C)C)[C@]1(OC(C)=O)CO[C@@H]1C[C@@H]2O, the inhibition (Sus scrofa [17]) is reported as “Active”.
For Cc1ncc([N+](=O)[O-])n1CCOC(=O)NC(Nc1nc2ccc(OC(F)(F)F)cc2s1)C(F)(F)Cl (stereo unspecified), the IC50 (MDA-MB-231 [2]) was 21.2 µM, the IC50 (MDA-MB-468 [5]) was 11.2 µM and the inhibition (Sus scrofa [15]) was “inactive”.
